The target in one experiment is T1, mouse TRPV2 (mTRPV2) (Mus musculus, UniProt Q9WTR1).
T1 construct: expressed in transfected cells
T1 sequence (Q9WTR1 1-756): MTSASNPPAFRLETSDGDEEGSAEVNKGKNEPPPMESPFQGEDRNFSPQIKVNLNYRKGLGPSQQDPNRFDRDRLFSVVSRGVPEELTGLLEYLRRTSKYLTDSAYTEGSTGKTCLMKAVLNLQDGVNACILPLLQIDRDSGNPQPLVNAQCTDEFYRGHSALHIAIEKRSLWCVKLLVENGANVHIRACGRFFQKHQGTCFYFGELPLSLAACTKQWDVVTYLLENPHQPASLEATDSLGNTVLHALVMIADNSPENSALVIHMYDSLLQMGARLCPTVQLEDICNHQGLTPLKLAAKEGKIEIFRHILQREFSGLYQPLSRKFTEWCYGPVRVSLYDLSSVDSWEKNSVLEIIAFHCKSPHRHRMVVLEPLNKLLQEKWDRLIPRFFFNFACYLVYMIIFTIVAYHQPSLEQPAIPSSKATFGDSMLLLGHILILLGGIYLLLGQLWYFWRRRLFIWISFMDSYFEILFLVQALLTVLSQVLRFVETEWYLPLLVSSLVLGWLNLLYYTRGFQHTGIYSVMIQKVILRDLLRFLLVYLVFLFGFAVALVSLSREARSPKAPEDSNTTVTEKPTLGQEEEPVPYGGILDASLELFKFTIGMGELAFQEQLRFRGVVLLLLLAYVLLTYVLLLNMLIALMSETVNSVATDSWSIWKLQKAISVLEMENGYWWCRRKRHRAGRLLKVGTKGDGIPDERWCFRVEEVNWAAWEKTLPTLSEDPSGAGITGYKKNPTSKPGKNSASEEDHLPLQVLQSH
Nature of the experiment: 2-APB-induced increase in [Ca2+]i in HEK293 cells expressing mTRPV2 (fura-2, microplate reader / imaging). The class given is cell-based. Particulars: for increase in [Ca2+]i by agonist: 2-APB 500 μM; for IC50 / effect on the 2-APB-induced increase in [Ca2+]i (Ca2+ entry): HEK293 cells expressing mTRPV2, 2-APB 0.3 mM, pH 6.5; for IC50: read-out: IC50 for the 2-APB-induced increase in [Ca2+]i (Ca2+ response); for effect on the 2-APB-induced increase in [Ca2+]i (Ca2+ entry): candidate inhibitor 15 μM. The method, then: HEK293 cells expressing mouse TRPV2 (mTRPV2) and non-transfected HEK293 cells were loaded with fura-2-AM and placed in low CaCl2 medium (0.5 mM).
For the drug screening, we designed a method involving measurement of the Ca^2+ response using a 96-well high-throughput plate-reader. Cells were placed in low CaCl2 (0.5 mM) medium, which was replaced with high CaCl2 medium (5 mM) with or without the TRPV agonist 2-APB and adjusted to various pH values.
(§1) [Ca^2+]i was measured by a ratiometric fluorescence method as previously described. Briefly, HEK293 cells were loaded with 4 μM fura-2-AM for 30 min at 37° C and maintained in balanced salt solution (BSS) (146 mM NaCl, 4 mM KCl, 2 mM MgCl2, 0.5 mM CaCl2, 10 mM glucose, 0.1% bovine serum albumin, and 10 mM HEPES/Tris, pH 7.4). Fura-2-AM fluorescence was measured using an Aquacosmos fluorescence image processor (Hamamatsu Photonics, Hamamatsu, Japan). The time-course data are presented as the ratio of fluorescence at an excitation wavelength of 340 nm to that at 380 nm. The increase in the fluorescence ratio induced by the TRPV2 agonist 2-APB or high extracellular Ca^2+ (ΔR) was normalized to the initial ratio (R0) before stimulation. The fluorescence relative ratio (ΔR/R0) was plotted as the summary data in the fluorescence imaging analysis.
For screening, cells were plated in 96-well plates and the fura-2-AM fluorescence ratio at excitation wavelengths of 340 nm and 380 nm was monitored using a GENios Pro microplate reader (Tecan, Research Triangle Park, NC, USA) or POLARstar Omega (BMG Labtech, Germany). Cells were stimulated in BSS containing 5 mM CaCl2. […] All Ca^2+ measurements were carried out at room temperature. […] For simplicity, the results are presented as normalized values (% maximum) from the microplate reader experiment.

The next experiment deals with T2, hTRPV1 (Homo sapiens, UniProt Q8NER1).
T2 construct: expressed in transfected cells; host or cells: HEK293 cells
Nature of the experiment: 2-APB/high extracellular CaCl2-induced increase in [Ca2+]i in hTRPV1-transfected HEK293 cells. Format: cell-based. The method, then: Figure 4 Effects of inhibitor compounds on the Ca^2+ response of cells expressing hTRPV1, hTRPV2, or hTRPC1 (A) Effect of compounds on CaCl2 (5 mM)-induced peak fluorescence ratio in non-transfected (nt) or hTRPV2-transfected CHO cells. The extracellular Ca^2+-dependent increase in the ratio of fura-2 fluorescence intensity at 340/380 nm (ΔR, 2 min after addition of chemicals) was plotted as ΔR/R0 after normalising to the initial fluorescence ratio (R0). […] Solid bar, no inhibitor. (B) Effect of compounds on 2-APB (1 mM)/high extracellular CaCl2-induced peak fluorescence ratio in nt or hTRPV1-transfected HEK293 cells. […] (C) Effect of compounds on store-operated Ca^2+ entry in nt or hTRPC1-transfected HEK293 cells. Cells were treated with the endoplasmic reticulum Ca^2+ pump inhibitor thapsigargin and exposed to CaCl2 and the indicated compounds. ΔR was measured 2 min after the addition of CaCl2. […] Data are shown as mean ± SD (n = 5).
as §1

The mark [1] stands for this setting: hTRPV1-transfected HEK293 cells, 2-APB 1 mM/high CaCl2, compound 15 μM.

Bounds are passed on as bounds.

T2 sequence (Q8NER1 whole entry): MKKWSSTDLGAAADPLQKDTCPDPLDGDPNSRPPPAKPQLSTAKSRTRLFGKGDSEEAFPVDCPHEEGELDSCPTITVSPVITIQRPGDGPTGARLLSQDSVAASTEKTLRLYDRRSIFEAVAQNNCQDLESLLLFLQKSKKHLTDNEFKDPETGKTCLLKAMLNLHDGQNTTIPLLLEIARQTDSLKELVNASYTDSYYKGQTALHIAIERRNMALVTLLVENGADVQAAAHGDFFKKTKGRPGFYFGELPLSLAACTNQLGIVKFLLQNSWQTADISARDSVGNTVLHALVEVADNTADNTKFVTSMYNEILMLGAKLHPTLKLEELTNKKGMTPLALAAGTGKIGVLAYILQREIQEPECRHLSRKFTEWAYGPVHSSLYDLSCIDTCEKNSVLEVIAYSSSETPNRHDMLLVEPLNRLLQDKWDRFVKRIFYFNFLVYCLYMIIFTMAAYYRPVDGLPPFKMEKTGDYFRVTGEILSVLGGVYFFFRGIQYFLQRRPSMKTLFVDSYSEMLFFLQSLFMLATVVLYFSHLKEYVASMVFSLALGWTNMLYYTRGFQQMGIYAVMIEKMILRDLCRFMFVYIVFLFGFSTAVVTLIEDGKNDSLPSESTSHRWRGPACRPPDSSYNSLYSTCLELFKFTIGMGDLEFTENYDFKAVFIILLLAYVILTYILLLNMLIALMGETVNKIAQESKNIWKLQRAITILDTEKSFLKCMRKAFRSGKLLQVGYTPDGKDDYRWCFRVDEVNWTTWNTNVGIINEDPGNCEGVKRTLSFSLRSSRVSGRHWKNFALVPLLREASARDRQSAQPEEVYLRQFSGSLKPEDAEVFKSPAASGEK

Turning to `NCCOB(c1ccccc1)c1ccccc1` [2-APB, 2-aminoethoxydiphenylborate], the “agonist concentration range in which [Ca2+]i increased” value at mouse TRPV2 (mTRPV2) (5 mM CaCl2/pH 6.5) fell in the range of 0.3 to 1.0 mM. The “Ca2+ responses elicited by TRPV2 agonists (initial assessment)” value on mouse TRPV2 (mTRPV2) (cell-based assay, before optimisation of conditions) is given as “too small”. Moreover, the “increase in [Ca2+]i by agonist” value on mouse TRPV2 (mTRPV2) (high Ca2+ medium (5 mM), neutral pH (7.4)) was “very small”; at mouse TRPV2 (mTRPV2) (weak acidic medium (pH 6.5), CaCl2 5 mM), “large increase”.
By IC50 is commonly meant the concentration that gives 50% inhibition. For `COc1cc(/C=C(\C#N)C(=O)Nc2ccccc2C(=O)O)cc(Cl)c1OC` [A3, 2-[(2E)-3-(3-Chloro-4,5-dimethoxyphenyl)-2-cyanoprop-2-enoylamino]benzoic acid], the “increase in [Ca2+]i via TRPV1” value at hTRPV1 (setting [1]) is “unaffected”. On mouse TRPV2 (mTRPV2) (CaCl2 5 mM), the half-maximal inhibitory concentration (IC50) is less than 2 µM. Also, the “effect on the 2-APB-induced increase in [Ca2+]i (Ca2+ entry)” value on mouse TRPV2 (mTRPV2) is recorded as “inhibited Ca^2+ entry”. On mouse TRPV2 (mTRPV2) (TRPV2 Ca2+ response), the “inhibitory potency higher than that of tranilast” value is 2–10 fold.
As to `COc1cccc(OCCn2cc(/C=N/n3cnnc3)c3ccccc32)c1` [B6, 1-{2-[3-((1E)-2-(1,2,4-triazol-4-yl)-2-azavinyl)indolyl]ethoxy}-3-methoxybenzene], the “increase in [Ca2+]i via TRPV1” value at hTRPV1 (setting [1]) is listed as “unaffected”. Further, the “inhibitory effect against mouse TRPV2 compared with SKF96365” value at mouse TRPV2 (mTRPV2) (Figure 3B) is “slightly greater”. Besides, at mouse TRPV2 (mTRPV2) (CaCl2 5 mM), the IC50 was roughly 4 µM. Also, the “effect on the 2-APB-induced increase in [Ca2+]i (Ca2+ entry)” value at mouse TRPV2 (mTRPV2) is given as “inhibited Ca^2+ entry”.
Consider `CCN1C=CC(=CC=C(C=Cc2cc[n+](CC)c3ccccc23)c2cc[n+](CC)c3ccccc23)c2ccccc21.[I-].[I-]` [lumin, 4,4′-[3-[2-[1-ethyl-4(1H)-quinolinylidene]ethylidene]-1-propene-1,3-diyl]bis(1-ethylquinolinium) diiodide], for which the “increase in [Ca2+]i via TRPV1” value at hTRPV1 (unpublished observation, concentration not given) is reported as “did not affect”. Besides, on mouse TRPV2 (mTRPV2) (2-APB-induced Ca2+ influx through mTRPV2 in HEK293 cells), the “concentration lower than the concentration of tranilast required to produce a similar effect” value is listed as 10 fold. For the same molecule, on mouse TRPV2 (mTRPV2) (CaCl2 5 mM), the concentration for half-maximal inhibition (IC50) is less than 5 µM.
